The source of these data is patent US6610699B2, “Use of L-carnitine and its alkanoyl derivatives in the preparation of medicaments with anticancer activity” (Sigma-Tau Industrie Farmaceutiche Riunite S.p.A., priority 1998, dated 2003).

For series [1], the system named is L-MM3 murine breast cancer cells. Put plainly: L-MM3 murine breast cancer in Balb/c mice, taxol and PLC, Experiment A (schedule A).
Protocol: (§2) Cell cultures of L-MM3 murine breast cancer cells were used, cultured at 37° C. in plastic flasks in a humidified atmosphere with 5% CO^2. The cells were grown in DMEM supplemented with 10% FCS and in the presence of 2 mM L-glutamine and 80 μg/ml of gentamicin. The subconfluent cells were collected during the exponential growth phase using trypsin-EDTA and re-suspended in DMEM. They were then injected subcutaneously in female Balb/c mice weighing 20 g at a density of 4×10^5.
(§3) The tumour was measured with a calliper three times a week as soon as it became palpable. The tumour mass is calculated on the basis of the measurements of the two dimensions (length and width), expressed in mm, according to the following formula: [formula]
(§4) If we consider conventionally a tumour density equal to 1, the result is that the tumour volume is equal to (mm^3=mg).
(§5) The agent is weighed, solubilised in the specific vehicle (12 mg/ml), and stored at +4° C., sheltered from the light. At the time of use, it is diluted 1:4 with saline solution in phosphate buffer (PBS, SIGMA) and injected.
(§6) Cremophor is diluted 1:1 with ethanol and stored sheltered from the light. On the day of treatment it is diluted 1:4 with PBS.
For series [2] the test system is unchanged. In words: L-MM3 murine breast cancer in Balb/c mice, taxol and PLC, Experiment B (schedule B).
Protocol: as §2, §3, §4, §5, §6
Series [3] relates to Hamsters. Put plainly: Bleomycin-induced pulmonary toxicity in hamsters: lung histology. Particulars: pre-treatment/IT instillation; day 22. It counts as in vivo, hamster. The procedure: (§1) Hamsters weighing 120 g were treated with bleomycin (1 unit) by the intratracheal route (IT) or with an equivalent volume of saline. In addition, the animals were pre-treated with ALC (200 mg/kg) or saline intraperitoneally just before the instillation of bleomycin, followed by daily injections for 1 week. The animals were allowed 3 weeks to recover prior to taking the tissue samples. At the time tissue samples were taken (day 22), one lung of each animal was prepared for histological investigation and the other lung for quantitative determination of hydroxyproline.
The lungs were fixed by insufflation at 20 cm of H2O ex vivo with 10% formaldehyde in PBS (pH 7), embedded in paraffin, sectioned and stained with haematoxylin/eosin. Sections with similar orientation from the portion of the pulmonary lobe—upper, middle and lower, respectively—were examined to verify the presence and degree of inflammatory infiltrate, oedema and interstitial and intra-alveolar fibrosis.

Series [4] deals with Hamsters. In words: Bleomycin-induced pulmonary toxicity in hamsters: lung hydroxyproline content. It counts as in vivo, hamster. Conditions: pre-treatment i.p. (ALC 200 mg/kg or saline, daily 1 week)/intratracheal instillation (bleomycin 1 unit or saline); day 22. The procedure: as §1
The hydroxyproline content (one of the main constituents of collagen) was measured using the known Woessner method. Lung samples were homogenised, hydrolysed with NaOH, and then left to oxidise before adding Erlich aldehyde reagent. Duplicate aliquots of each sample were assayed by spectrophotometry and compared with a standard calibration curve obtained with purified hydroxyproline. The hydroxyproline content (HYP) is expressed as mg/lung.

Consider `CCC(=O)O[C@H](CC(=O)[O-])C[N+](C)(C)C` [PLC, propionyl L-carnitine], for which, in series [1], the “Animals with tumours/total number of animals, Day 22” value is on record as 6/12; the “Animals with tumours/total number of animals, Day 25” value is given as 9/12; the “Animals with tumours/total number of animals, Day 28” value is 11/12; the “Animals with tumours/total number of animals, Day 36” value is on record as 12/12. In addition, in series [1], the “Animals with tumours/total number of animals, Day 46” value is on record as 12/12; the “Tumour size, Day 22” value is on record as 0.6 ± 0.3; the “Tumour size, Day 25” value was 1.2 ± 0.38; the “Tumour size, Day 28” value is 3 ± 0.4. For the same molecule, in series [1], the “Tumour size, Day 36” value was determined as 9.5 ± 0.8 and the “Tumour size, Day 46” value worked out at 15 ± 1.1. Besides, the “Tumour size, Day 0” value in series [1] (day of inoculation) is listed as 0. The “Animals with tumours/total number of animals, Day 19” value in series [1] (taxol 30 mg/kg i.p. days 15,17,19,21, PLC 100 mg/kg s.c. days 12-24) is on record as 4/12. Besides, in series [2], the “Animals with tumours/total animals, Day 45” value is 8/10; the “Animals with tumours/total animals, Day 59” value was 8/10; the “Tumour size, Day 26” value amounted to 0.4 ± 0.3; the “Tumour size, Day 31” value came out at 0.5 ± 0.3. Besides, in series [2], the “Tumour size, Day 37” value is recorded as 1.3 ± 0.6; the “Tumour size, Day 41” value was found to be 2.2 ± 1.0; the “Tumour size, Day 45” value is on record as 3.9 ± 1.2; the “Tumour size, Day 53” value was 5.6 ± 1.4. Further, the “Tumour size, Day 59” value in series [2] was determined as 8 ± 2.2. In addition, the “Tumour size, Day 0” value in series [2] (day of inoculation) was 0. For the same molecule, in series [2] (taxol 30 mg/kg i.p. days 8,10,12,14, PLC 100 mg/kg s.c. to day 59), the “Animals with tumours/total animals, Day 31” value is recorded as 3/10.
“bleomycin [Saline/bleomycin, reference compound]”: the “lung histology (in words)” value in the series with Hamsters [3] is “dense fibrosis, alveolar atelectasis and oedema”. Further, the “hydroxyproline content (HYP)” value in the series with Hamsters [4] was 1.831 mg/lung.
